Reference: patent US9533963B2, “Alkylamidothiazoles, cosmetic or dermatological preparations containing said alkylamidothiazoles, and use thereof to combat or prevent undesired pigmentation of the skin” (BEIERSDORF AG, priority 2011, dated 2017)

These compounds were tested against T1, human tyrosinase (Homo sapiens, UniProt P14679) (assay: Enzyme test: conversion of L-DOPA to L-dopaquinone by a human tyrosinase (MBTH, absorption at 490 nm)). Details: concentration 10 μg/ml; inhibition of the tyrosinase activity.
T1 sequence (P14679 19-529): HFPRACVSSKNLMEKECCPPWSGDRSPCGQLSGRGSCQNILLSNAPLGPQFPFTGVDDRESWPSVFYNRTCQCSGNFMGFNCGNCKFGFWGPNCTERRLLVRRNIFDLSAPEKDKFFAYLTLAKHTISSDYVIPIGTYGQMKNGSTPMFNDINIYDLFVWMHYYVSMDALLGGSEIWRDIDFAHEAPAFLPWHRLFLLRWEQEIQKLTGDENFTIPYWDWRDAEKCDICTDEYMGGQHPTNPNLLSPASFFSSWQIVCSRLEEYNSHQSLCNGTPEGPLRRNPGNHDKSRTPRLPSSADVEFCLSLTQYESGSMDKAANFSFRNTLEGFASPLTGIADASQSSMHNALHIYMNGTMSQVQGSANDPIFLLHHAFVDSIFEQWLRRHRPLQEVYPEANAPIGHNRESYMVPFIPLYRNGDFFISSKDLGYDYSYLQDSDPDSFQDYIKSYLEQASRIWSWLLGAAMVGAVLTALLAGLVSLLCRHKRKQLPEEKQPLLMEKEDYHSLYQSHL
Type: biochemical
Experimental: Method Description of the Effectiveness Investigations:
In this literature-known method (Winder, A. J. and Harris, H., New assays for the tyrosine hydroxylase and dopa oxidase activities of tyrosinase. Eur. J. Biochem. (1991), 198, 317-26), the reaction product L-dopaquinone is reacted with MBTH (3-methyl-2-benzothiazoline hydrazone) to give a pink-colored substance, the increase of which is measured over the time by absorption at 490 nm. […] It can be concluded from this that the substances according to the invention are extremely effective pigmentation-inhibiting substances.

Compound | Inhibition (% of the control) [%]
CC(C)Nc1nc(-c2ccc(O)cc2O)cs1 [4-(2-Isopropylamino)thiazol-4-yl)benzene-1,3-diol, reference compound] | 91

Same assay, conditions: concentration 10 μg/ml; inhibition of the tyrosinase activity; read-out: Inhibition (% of the control)

Compound | inhibition at 10 µg/mL [%]
OCc1ccc(Nc2nc(-c3ccc(O)cc3O)cs2)cc1 [4-(2-((4-(Hydroxymethyl)phenyl)amino)thiazol-4-yl)benzene-1,3-diol, reference compound] | 93
Oc1ccc(-c2csc(NC3CCCCC3)n2)c(O)c1 [4-(2-(Cyclohexylamino)thiazol-4-yl)benzene-1,3-diol, reference compound] | 70
CCCCCCNc1nc(-c2ccc(O)cc2O)cs1 [4-(2-(Hexylamino)thiazol-4-yl)benzene-1,3-diol, reference compound] | 41
CCCNc1nc(-c2ccc(O)cc2O)cs1 [4-(2-(Propylamino)thiazol-4-yl)benzene-1,3-diol, reference compound] | 88
CC(C)(C)Nc1nc(-c2ccc(O)cc2O)cs1 [4-(2-(tert-Butylamino)thiazol-4-yl)benzene-1,3-diol, reference compound] | 62
O=C(Cc1ccc(CO)cc1)Nc1nc(-c2ccc(O)cc2O)cs1 [N-(4-(2,4-Dihydroxyphenyl)thiazol-2-yl)-2-(4-(hydroxymethyl)phenyl)acetamide] | 88
O=C(Nc1nc(-c2ccc(O)cc2O)cs1)C1CCC(CO)CC1 (stereo not shown) [N-(4-(2,4-Dihydroxyphenyl)thiazol-2-yl)-4-(hydroxymethyl)cyclohexanecarboxamide] | 94
CCCC(=O)Nc1nc(-c2ccc(O)cc2O)cs1 [N-(4-(2,4-Dihydroxyphenyl)thiazol-2-yl)butyramide] | 95
O=C(Nc1nc(-c2ccc(O)cc2O)cs1)C1CCCCC1 [N-(4-(2,4-Dihydroxyphenyl)thiazol-2-yl)cyclohexanecarboxamide] | 92
CCCCCCC(=O)Nc1nc(-c2ccc(O)cc2O)cs1 [N-(4-(2,4-Dihydroxyphenyl)thiazol-2-yl)heptanamide] | 66
CC(C)C(=O)Nc1nc(-c2ccc(O)cc2O)cs1 [N-(4-(2,4-Dihydroxyphenyl)thiazol-2-yl)isobutyramide] | 94
CC(C)(C)C(=O)Nc1nc(-c2ccc(O)cc2O)cs1 [N-(4-(2,4-Dihydroxyphenyl)thiazol-2-yl)pivalamide] | 96
